Measurements as given in US20110052713A1, “REPAIRING DAMAGED NERVOUS SYSTEM TISSUE WITH NANOPARTICLES” (priority 2008, published 2011).
Where two headings read alike, the source gives them in different places.

How the values were obtained:
[1] = tested on: voltage gated fast potassium channels; settings: paralyzed persons; cited from earlier work
PC 12 cells [2] = experiment: MTT assay after acrolein exposure (MSN study); assay type: cell-based; settings: Rattus norvegicus, read-out: MTT activity (absorbance), % of control values
Experimental: (§1) Exposure to 100 μM acrolein can induce the death of >80% of a population of PC 12 Cells by a few hours, and 100% by 8-12 hours of observation. […] Typically, populations of cells with acrolein-mediated damage show a significant reduction in MTT activity due to the collapse of mitochondria function.

PC 12 cells [3] = experiment: MTT assay after acrolein exposure (chitosan nanoparticles); assay type: cell-based
Experimental: (§2) In one example, functional tests (MTT and LDH exclusion tests) were used to evaluate the response to different chitosan formulations in PC 12 cells suffering from acrolein exposure. We compared the effectiveness of these formulations using entire cell populations in six different groups: 1) a control group, (2) a 100 μM acrolein-exposed group, (3) a 100 μM acrolein-exposed and Chi-DS nanoparticle—treated group, (4) a 100 μM acrolein-exposed and Chi-DS/Hy nanoparticle—treated group, (5) a 100 μM acrolein-exposed and Chi-TPP nanoparticle—treated group, and (6) a 100 μM acrolein-exposed and Chi-TPP/Hy nanoparticle—treated group. First, we tested whether chitosan nanoparticles were capable of sufficiently reducing acrolein cytotoxicity using the MTT assay. In all experiments, the various types of nanoparticles were added to the cell medium after 15 min following the exposure to acrolein. As a consequence of acrolein exposure, approximately 98% of the cells in culture died within a couple of hours. Acrolein-induced cytotoxicity was expressed as a percentage of MTT activity, which is, as explained above, an indicator of aberrant mitochondria functioning. Thus, MTT activity subsequent to 100 acrolein exposure was decreased to 3.5±2.9% of controls values. […] Even more significant increase was observed after application of hydralazine-entrapped chitosan nanoparticles. […]

PC 12 cells [4] = experiment: LDH release after acrolein exposure (chitosan nanoparticles); assay type: cell-based; settings: Rattus norvegicus, 100 μM acrolein, post-treatment with nanoparticles, acrolein row = acrolein alone, read-out: LDH release, % of control values
Experimental: as §2

PC 12 cells [5] = experiment: Live-dead cell assay after acrolein exposure; assay type: cell-based; settings: 5 hr, control cells 90±7%
[6] = tested on: acrolein poisoned cultures; experiment: ROS level in acrolein poisoned cultures; assay type: cell-based; settings: 100 μM acrolein; acrolein row = acrolein alone; read-out: level of ROS, % of control values
PC 12 cells [7] = settings: 100 μM acrolein, cited from earlier work
PC 12 cells [8] = experiment: LDH release assay after acrolein exposure (MSN study); assay type: cell-based; settings: Rattus norvegicus, PC-12, 0.25 h; 100 μM acrolein; treatment added with 15 min delay; acrolein row = acrolein alone; read-out: LDH release, % of control values
Experimental: as §1

Nc1ccncc1 [4-Aminopyridine]
share of treated population with clinically meaningful recoveries of function [1]: about 30%

C=CC=O [acrolein]
activity at 100 µM (PC 12 cells [2]): 11 ± 10.2%
activity at 100 µM (PC 12 cells [3]; Rattus norvegicus, PC-12, 100 μM acrolein, nanoparticles added 15 min after, after 5 hr, acrolein row = acrolein alone, read-out: MTT activity / survival, % of control values): 3.5 ± 2.9%
cells in culture that died (PC 12 cells [3]; acrolein exposure, within a couple of hours): approximately 98%
activity at 100 µM (PC 12 cells [4]): 178 ± 25.4%
cell survival (live-dead cell assay) (PC 12 cells [5]): 30±8%
activity at 100 µM [6]: 120 ± 14%
death of cell population (PC 12 cells [7]; by 8-12 hours of observation): 100%
death of cell population (PC 12 cells [7]; by a few hours): > 80%
activity at 100 µM (PC 12 cells [8]): 168 ± 15.4%

NNc1nncc2ccccc12 [hydralazine]
activity at 500 µM (PC 12 cells [2]): 53.8 ± 18.6%
